Assay results published in PubChem BioAssay (NCI).
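Five compound concentrations were applied to cells in 96-well plates for 48 hours; endpoints were derived by simple linear interpolation of the resulting dose-response curve. TGI is the concentration that stops growth completely.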

Experiments:
Experiment in all cases: NCI-60 cell line screen, 48 h
KM12 colon = test system: KM12 colon
SN12C renal = test system: SN12C renal
HS 578T breast = test system: HS 578T breast
OVCAR-3 ovarian = test system: OVCAR-3 ovarian
SW-620 colon = test system: SW-620 colon
MDA-MB-231 breast = test system: MDA-MB-231 breast
SK-OV-3 ovarian = test system: SK-OV-3 ovarian
A549 NSCLC = test system: A549 NSCLC
RXF 393 renal = test system: RXF 393 renal
ACHN renal = test system: ACHN renal
IGROV1 ovarian = test system: IGROV1 ovarian
CAKI-1 renal = test system: CAKI-1 renal
K-562 leukemia = test system: K-562 leukemia
TK-10 renal = test system: TK-10 renal
MALME-3M melanoma = test system: MALME-3M melanoma
UACC-257 melanoma = test system: UACC-257 melanoma
SF-295 CNS = test system: SF-295 CNS
RPMI-8226 leukemia = test system: RPMI-8226 leukemia
COLO 205 colon = test system: COLO 205 colon
HT29 colon = test system: HT29 colon
MCF7 breast = test system: MCF7 breast
U251 CNS = test system: U251 CNS
OVCAR-4 ovarian = test system: OVCAR-4 ovarian
OVCAR-5 ovarian = test system: OVCAR-5 ovarian
PC-3 prostate = test system: PC-3 prostate
NCI-H460 lung = test system: NCI-H460 lung
SF-539 CNS = test system: SF-539 CNS
MDA-N = test system: MDA-N
HCT-116 colon = test system: HCT-116 colon
HOP-92 NSCLC = test system: HOP-92 NSCLC
EKVX NSCLC = test system: EKVX NSCLC
NCI-H226 lung = test system: NCI-H226 lung
SK-MEL-5 melanoma = test system: SK-MEL-5 melanoma
MOLT-4 leukemia = test system: MOLT-4 leukemia
A498 renal = test system: A498 renal
SNB-19 CNS = test system: SNB-19 CNS
786-0 renal = test system: 786-0 renal
SK-MEL-28 melanoma = test system: SK-MEL-28 melanoma
SK-MEL-2 melanoma = test system: SK-MEL-2 melanoma
SR leukemia = test system: SR leukemia
LOX IMVI melanoma = test system: LOX IMVI melanoma
SF-268 CNS = test system: SF-268 CNS
NCI-H23 lung = test system: NCI-H23 lung
MDA-MB-435 = test system: MDA-MB-435
CCRF-CEM leukemia = test system: CCRF-CEM leukemia
M14 melanoma = test system: M14 melanoma
HOP-62 NSCLC = test system: HOP-62 NSCLC
UO-31 renal = test system: UO-31 renal
UACC-62 melanoma = test system: UACC-62 melanoma
OVCAR-8 ovarian = test system: OVCAR-8 ovarian
HCT-15 colon = test system: HCT-15 colon
T-47D breast = test system: T-47D breast
BT-549 breast = test system: BT-549 breast
SNB-75 CNS = test system: SNB-75 CNS
NCI-H522 lung = test system: NCI-H522 lung
NCI/ADR-RES ovarian = test system: NCI/ADR-RES ovarian
HL-60(TB) leukemia = test system: HL-60(TB) leukemia
DU-145 prostate = test system: DU-145 prostate
HCC-2998 colon = test system: HCC-2998 colon

Cc1nn(C(=O)c2ccccc2O)c2c1C(c1ccc3ccccc3c1O)SC(N)=N2 (stereo unspecified)
TGI (KM12 colon): > 10 µM | TGI (SN12C renal): > 10 µM | TGI (HS 578T breast): > 10 µM | TGI (OVCAR-3 ovarian): 9.61 µM | TGI (SW-620 colon): > 10 µM | TGI (MDA-MB-231 breast): > 10 µM | TGI (SK-OV-3 ovarian): > 10 µM | TGI (A549 NSCLC): > 10 µM | TGI (RXF 393 renal): > 10 µM | TGI (ACHN renal): > 10 µM | TGI (IGROV1 ovarian): > 10 µM | TGI (CAKI-1 renal): > 10 µM | TGI (K-562 leukemia): > 10 µM | TGI (TK-10 renal): > 10 µM | TGI (MALME-3M melanoma): > 10 µM | TGI (UACC-257 melanoma): > 10 µM | TGI (SF-295 CNS): > 10 µM | TGI (RPMI-8226 leukemia): > 10 µM | TGI (COLO 205 colon): > 10 µM | TGI (HT29 colon): > 10 µM | TGI (MCF7 breast): 7.32 µM | TGI (U251 CNS): > 10 µM | TGI (OVCAR-4 ovarian): > 10 µM | TGI (OVCAR-5 ovarian): > 10 µM | TGI (PC-3 prostate): > 10 µM | TGI (NCI-H460 lung): > 10 µM | TGI (SF-539 CNS): > 10 µM | TGI (MDA-N): > 10 µM | TGI (HCT-116 colon): > 10 µM | TGI (HOP-92 NSCLC): 4.03 µM | TGI (EKVX NSCLC): > 10 µM | TGI (NCI-H226 lung): > 10 µM | TGI (SK-MEL-5 melanoma): 4.76 µM | TGI (MOLT-4 leukemia): > 10 µM | TGI (A498 renal): > 10 µM | TGI (SNB-19 CNS): > 10 µM | TGI (786-0 renal): > 10 µM | TGI (SK-MEL-28 melanoma): > 10 µM | TGI (SK-MEL-2 melanoma): > 10 µM | TGI (SR leukemia): > 10 µM | TGI (LOX IMVI melanoma): > 10 µM | TGI (SF-268 CNS): > 10 µM | TGI (NCI-H23 lung): > 10 µM | TGI (MDA-MB-435): > 10 µM | TGI (CCRF-CEM leukemia): > 10 µM | TGI (M14 melanoma): > 10 µM | TGI (HOP-62 NSCLC): > 10 µM | TGI (UO-31 renal): > 10 µM | TGI (UACC-62 melanoma): 4.63 µM | TGI (OVCAR-8 ovarian): > 10 µM | TGI (HCT-15 colon): > 10 µM | TGI (T-47D breast): 8.93 µM | TGI (BT-549 breast): > 10 µM | TGI (SNB-75 CNS): > 10 µM

Cc1ccc(-n2c(=O)c3nn4c(=O)n(-c5ccc(C)cc5)c(=O)c4nn3c2=O)cc1
TGI (KM12 colon): > 100 µM | TGI (SN12C renal): > 100 µM | TGI (HS 578T breast): > 100 µM | TGI (OVCAR-3 ovarian): > 100 µM | TGI (SW-620 colon): > 100 µM | TGI (SK-OV-3 ovarian): > 100 µM | TGI (A549 NSCLC): > 100 µM | TGI (RXF 393 renal): > 100 µM | TGI (ACHN renal): > 100 µM | TGI (IGROV1 ovarian): > 100 µM | TGI (NCI-H522 lung): > 100 µM | TGI (CAKI-1 renal): > 100 µM | TGI (K-562 leukemia): > 100 µM | TGI (TK-10 renal): > 100 µM | TGI (MALME-3M melanoma): > 100 µM | TGI (NCI/ADR-RES ovarian): > 100 µM | TGI (UACC-257 melanoma): > 100 µM | TGI (SF-295 CNS): > 100 µM | TGI (RPMI-8226 leukemia): > 100 µM | TGI (COLO 205 colon): > 100 µM | TGI (HL-60(TB) leukemia): > 100 µM | TGI (HT29 colon): > 100 µM | TGI (MCF7 breast): > 100 µM | TGI (U251 CNS): > 100 µM | TGI (OVCAR-4 ovarian): > 100 µM | TGI (OVCAR-5 ovarian): > 100 µM | TGI (PC-3 prostate): > 100 µM | TGI (NCI-H460 lung): > 100 µM | TGI (SF-539 CNS): > 100 µM | TGI (MDA-N): > 100 µM | TGI (HCT-116 colon): > 100 µM | TGI (HOP-92 NSCLC): > 100 µM | TGI (EKVX NSCLC): > 100 µM | TGI (NCI-H226 lung): > 100 µM | TGI (SK-MEL-5 melanoma): > 100 µM | TGI (MOLT-4 leukemia): > 100 µM | TGI (SNB-19 CNS): > 100 µM | TGI (786-0 renal): > 100 µM | TGI (SK-MEL-28 melanoma): > 100 µM | TGI (SK-MEL-2 melanoma): > 100 µM | TGI (SR leukemia): > 100 µM | TGI (LOX IMVI melanoma): > 100 µM | TGI (SF-268 CNS): > 100 µM | TGI (NCI-H23 lung): > 100 µM | TGI (MDA-MB-435): > 100 µM | TGI (CCRF-CEM leukemia): > 100 µM | TGI (M14 melanoma): > 100 µM | TGI (DU-145 prostate): > 100 µM | TGI (HOP-62 NSCLC): > 100 µM | TGI (UO-31 renal): > 100 µM | TGI (HCC-2998 colon): > 100 µM | TGI (UACC-62 melanoma): > 100 µM | TGI (OVCAR-8 ovarian): > 100 µM | TGI (HCT-15 colon): > 100 µM | TGI (T-47D breast): > 100 µM | TGI (BT-549 breast): > 100 µM | TGI (SNB-75 CNS): > 100 µM
